# Measurements: patent US7160733B2, “Ligand specific to β2-glycoprotein I and use thereof” (priority 2001, dated 2007)
# How the values were obtained:
# WB-CAL-1 = assay: ELISA on solid-phase lipid (ligand)-coated plate: WB-CAL-1 binding in presence of β2-GPI; design: species or system mouse
# Procedure: (§1) Binding to extracted lipids: A microtiter plate (Immulon 1B, Dynex Technologies Inc.) was coated with lipids extracted from LDLs (50 μg/mL, 50 μL/well) by ethanol evaporation. The wells were blocked with PBS containing 1% BSA for one hour and the wells were incubated with 30 μg/mL of β2-GPI for one hour. Then, β2-GPI binding was detected using Cof-22 and HRP-labeled anti-mouse IgG antibodies. Alternatively, an anti-β2-GPI autoantibody (Cof-22, WB-CAL-1, or EY2C9) was diluted with a 0.3% BSA-containing PBS, and the diluted antibody was added to the coated plate (1.0 μg/mL, 100 μL/well) and incubated with β2-GPI (15 μg/mL) for one hour. The binding of the antibody was detected by an HRP-labeled anti-mouse IgG /or an anti-human IgM. The color was developed with H2O2 and o-phenylenediamine, and OD was measured at 490 nm. Between these steps, extensive washing were done using PBS containing 0.05% Tween 20.
# (§2) Synthesized oxLig-1 (50 μg/mL, 50 μL/well) was adsorbed by evaporation on a polystyrene plate (Immulon 1B; Dynex Technologies Inc.), and the plate was then blocked with 1% BSA. Serum samples (diluted 1:100 with PBS containing 0.3% BSA) were incubated in the wells with β2-GPI (15 μg/mL) or other proteins for one hour at room temperature. Antibody binding was detected with HRP-labeled anti-human IgG. Further steps were performed through a method as described in “anti-β2-GPI ELISA.”
# (§3) CL (50 μg/mL, 50 μL/well) was adsorbed on a polystyrene plate (Immulon 1B), and further steps were performed through a method as described in “ELISA for antibodies against a protein-oxLig-1 complex.”
# β2-GPI = molecular target: T1, β2-GPI (Homo sapiens, UniProt P02749); assay: ELISA on solid-phase lipid (ligand)-coated plate: β2-GPI binding detected with Cof-22
# T1 construct: β2-GPI was purified from normal human plasma as described in [35] with slight modification; from tissue; host or cells: pooled normal human plasma from healthy subjects
# T1 sequence (P02749 20-345): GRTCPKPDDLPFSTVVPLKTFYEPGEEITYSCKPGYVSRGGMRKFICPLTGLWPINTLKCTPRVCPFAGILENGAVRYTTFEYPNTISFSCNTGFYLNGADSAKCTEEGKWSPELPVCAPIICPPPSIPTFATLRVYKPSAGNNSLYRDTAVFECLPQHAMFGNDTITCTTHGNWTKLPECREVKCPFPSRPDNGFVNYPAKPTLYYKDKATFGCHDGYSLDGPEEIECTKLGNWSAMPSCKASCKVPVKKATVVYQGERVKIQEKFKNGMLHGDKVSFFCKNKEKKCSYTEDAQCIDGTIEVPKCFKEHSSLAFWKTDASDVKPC
# Procedure: as §1, §2, §3
# EY2C9 = assay: ELISA on solid-phase lipid (ligand)-coated plate: EY2C9 binding in presence of β2-GPI; design: species or system human
# Procedure: as §1, §2, §3
# J774A.1 cells = assay: Liposome binding to macrophages (3H-labeled liposomes, 4° C.); format: cell-based, murine
# Procedure: FIG. 10. Effect of phosphatidylserine (PS) or oxLig-1 content on the binding of liposomes to macrophages. A monolayer of J774.A1 cells was incubated for 2 hours at 4° C. with Celgrosser-P medium containing ^3H-labeled liposomes (50 nmol lipid/well). Open circle represents PS-liposomes; closed circle represents PS-Chol-liposomes; open square represents oxLig-1-liposomes; and closed square represents oxLig-1-Chol-liposomes. Data are indicated as the mean± SD of triplicate samples.
# FIG. 11. β2-GPI and anti-β2-GPI monoclonal antibody-dependent binding of ligand-containing liposomes to macrophage. A monolayer of J774.A1 cells was incubated for 2 hours at 4° C. with Celgrosser-P medium containing ^3H-labeled liposomes (50 nmol lipid/well) and WB-CAL-1, in the presence or absence of β2-GPI (200 μg/ml). • A: Binding of PS-liposomes (PS: 50 mol %,) to J774.A1. cells in the presence (closed square) or absence (open square) of β2-GPI (200 μg/ml) • B: Binding of oxLig-1-liposomes (oxLig-1: 40 mol %) to J774.A1 cells in the presence (black bar) or absence (white bar) of β2-GPI (200 μg/ml). • C: A monolayer of J774.A1 cells was incubated for 2 hours at 4° C. with Celgrosser-P medium containing ^3H-labeled synthesized oxLig-1-liposomes (50 nmol lipid/well) and WB-CAL-1, in the presence or absence of β2-GPI (200 μg/ml). Binding of synthesized oxLig-1-liposomes in the absence of β2-GPI and WB-CAL-1 (open circle), binding of synthesized oxLig-1-liposomes in the presence of β2-GPI (open square), binding of synthesized oxLig-1-liposomes in the presence of WB-CAL-1 (closed square), and binding of synthesized oxLig-1-liposomes in the presence of both β2-GPI and WB-CAL-1 (closed circle). Data are indicated as the mean ± SD of triplicate samples.
# A monolayer of J774.A1 cells was incubated for 2 hours at 4° C. with Celgrosser-P medium containing [^3H]-labeled liposomes (containing a predetermined ligand, 50 nmol lipid/well). DPPS-containing liposomes (open squares), oxLig-1-containing liposomes (closed squares), oxLig-2-containing liposomes (closed circles), and 13-COOH-7KC-containing liposomes (closed triangles). Data are indicated as mean± SD of triplicate samples.
# A monolayer of J774.A1 cells was incubated for 2 hours at 4° C. with Celgrosser-P medium containing [^3H]-labeled liposomes (containing a predetermined ligand (30 mmol %), 50 nmol lipid/well) and in the presence (black bars) or absence (white bars) of β2-GPI (200 μg/mL) and WB-CAL-1 ([…]).
# A monolayer culture of murine macrophage-like cells (J774A.1) obtained from Riken Cell Bank (Tsukuba) was maintained in RPMI 1640 medium supplemented with 10% fetal carf serum (FCS). For binding experiments, the cells (8×10^5 cells/mL, RPMI1640) were dispensed in an amount of 1 mL/well into a 12-well culture plate (Sumitomo Bakelite Co., Ltd.) and were incubated for 24 hours at 37° C., then the culture broth was replaced with Celgrosser-P medium (Sumitomo Pharmaceutical Co.). After one hour of preincubation at 37° C., 50 μL of liposomes (50 nmol lipid/well) with or without β2-GPI (200 μg/mL) and WB-CAL-1 (100 μg/mL) were added to each culture, and the cells were incubated at 4° C. and/or 37° C. The wells were next washed with chilled PBS, and the cells were lysed by adding 1 mL of 0.1N NaOH. An aliquot was taken for determination of cellular proteins and of radioactivity associated with the cells. Protein concentration was determined in a manner as described above.
# [1] = Experiment 1, Absorbance, mean ± SD, n = 3, solid-phase lipid, β2-GPI 15 μg/mL
# [2] = absorbance at 490 nm, mean ± SD (n = 3), solid-phase ligand not methylated
smiles,measurement,setting,value
"CC(C)CCC[C@@H](C)[C@H]1CC[C@H]2[C@@H]3C(=O)C=C4C[C@@H](OC(=O)CCCCCCCC(=O)O)CC[C@]4(C)[C@H]3CC[C@]12C [oxLig-1, 9-oxo-9-(7-ketocholest-5-en-3β-yloxy)nonanoic acid]","Binding of β2-GPI-dependent aCL, WB-CAL-1",WB-CAL-1; [1],1.035 ± 0.062
same,"WB-CAL-1 binding, No treatment",WB-CAL-1; [2],0.945 +/− 0.068
same,"Binding of β2-GPI-dependent aCL, Cof-22",β2-GPI; [1],1.066 ± 0.114
same,"β2-GPI binding (Cof-22 binding), No treatment",β2-GPI; [2],1.307 +/− 0.105
same,β2-GPI binding to lipid,β2-GPI; result in words (discussion),significant bonding
same,"Binding of β2-GPI-dependent aCL, EY2C9",EY2C9; [1],0.915 ± 0.072
same,"EY2C9 binding, No treatment",EY2C9; [2],1.458 +/− 0.062
same,direct binding of liposomes to macrophages,"J774A.1 cells; J774A.1 cells, 2 hours at 4° C., 50 nmol lipid/well, without β2-GPI and antibody, result in words",relatively low or negligible small
same,uptake of ligand-containing liposomes to J774A.1 cells in the presence of both β2-GPI and WB-CAL-1,"J774A.1 cells; liposomes containing the ligand, compared with cholesteryl linoleate-liposomes (control), FIG. 20, result in words",significantly enhanced
same,ligand concentration in liposomes at which binding to macrophages reached almost plateau,"J774A.1 cells; synthesized oxLig-1-liposomes, J774A.1 cells",10 mol %
